Measurements from article PMC10700673, “A Smart Intracellular Self‐Assembling Bioorthogonal Raman Active Nanoprobe for Targeted Tumor Imaging” (Advanced Science, 2023).

Experiments:
[1] = tested on: RWPE1 cells; test: confocal Raman imaging of cells; assay type: cell-based; conditions: 100 µM, 3 h, then fresh media 30 min; fixed cells; RWPE1, normal prostate epithelium
Protocol: (§1) Raman measurements were performed on cells cultured on quartz slides. Cells were incubated with 100 µM nanoSABER probe solution for 3 h, then fresh media was added and incubation was continued for an extra 30 min. Subsequently, the cells were washed three times with phosphate‐buffered saline (PBS), fixed with 4% paraformaldehyde (PFA) for 20 min, and washed with PBS again. Finally, cells were imaged using a confocal Raman microscope. Cell boundaries were constructed using the Raman peak at 1440 cm^−1 characteristic of intrinsic cellular signals.^[ [29] ^] […] These spectral features indicate legumain‐mediated intracellular self‐assembly of nanoSABER into alkyne‐dimer nanoparticles in DU145 cells. The Raman mapping results were consistent with our in vitro solution‐based measurements (Figure 2f) where the nitrile peak diminished after the formation of alkyne‐dimer.
(§2) Raman spectra of all synthesized peptides were acquired using a 785 nm laser and a 50× objective. The acquisition time was 10 s with 5 repetitions. All spectra were processed using custom‐written scripts in MATLAB for a tenth‐order least‐squares polynomial baseline correction with a moving window of 50. All Raman cellular imaging maps were acquired using 785 nm laser excitation and a 60× water immersion objective. For each acquisition time, the number of accumulations were 6 s and 8 acquisitions, respectively. For sample preparation, 1 × 10^5 cells were cultured in six‐well plates containing 10×10 mm quartz slides for 24 h. Cells were incubated with 100 µM of nanoSABER or Scr nanoprobe for 3 h followed by replacement with fresh media and additional incubation for 30 min. Cells were washed with PBS three times and then fixed with 4 % paraformaldehyde (PFA) for 20 min, resuspended back in PBS, and then imaged using a confocal Raman microscope. […] For each group, three independent experiments were performed, and from each pellet, we recorded Raman spectra from eight different positions. […]

[2] = tested on: DU145 cells; test: confocal Raman imaging of cells; assay type: cell-based; conditions: 100 µM, 3 h, then fresh media 30 min; fixed cells; DU145, legumain overexpressing
Protocol: as §1, §2

[3] = tested on: LNCaP cells; test: confocal Raman imaging of cells; assay type: cell-based; conditions: 100 µM, 3 h, then fresh media 30 min, fixed cells, legumain low-expressing
Protocol: as §1, §2

[4] = in vivo toxicity and biocompatibility; set-up: species or system healthy female rag2 mice; conditions: 7 days after IV 100 µL, 0.0125 mmol kg-1, n = 3
Excerpt: The in vivo toxicity and biocompatibility of nanoSABER were investigated following IV injection of nanoSABER in mice (Figure 7a). […] In addition, we examined various common indicators related to renal function (Figure 7c), liver function (Figure 7d), and bone marrow function (Figure 7e). […] These findings further confirm the biocompatibility and safety of the nanoSABER for in vivo targeted tumor imaging.
Figure 7 a) Schematic illustration of in vivo toxicity and biocompatibility assessment 7 days after IV injection of nanoSABER. b) Histology of major organs excised and stained with H&E for PBS (control) or nanoSABER injection. c) Kidney function test for blood plasma and urine. d) Liver function test for the enzymes aspartate transaminase (AST), alkaline phosphatase (ALP), and alanine transaminase (ALT) in blood plasma. e) Bone marrow function test for red blood cells (RBCs), white blood cells (WBCs), and platelets in blood plasma. All data are presented as mean ± standard deviation, n = 3. p‐Values of <0.001 (***), 0.001 to 0.01 (**), and 0.01 to 0.05 (*) were considered significant.
All animal experiments were carried out under an approved IACUC protocol. The biocompatibility of nanoSABER was evaluated in vivo, using healthy female rag2 mice that were divided into two groups (n = 3 each). […]

Substance: Ac‐Arg‐Arg‐Arg‐Arg‐Arg‐Arg‐Ala‐Ala‐Asn‐Cys(StBu)‐Pra‐Lys‐CBT [nanoSABER]
- Raman map, alkyne and nitrile signals [1]: signals for both alkyne and nitrile groups from the nanoprobe were observed
- Raman map, alkyne 2120 cm-1 and nitrile 2230 cm-1 signals [2]: undetectable signal levels at 2230 cm^−1
- Raman map, alkyne and nitrile signals [3]: signals for both alkyne and nitrile groups from the nanoprobe were observed
- renal, liver and bone marrow function parameters ([4]; compared with PBS group): fell within a normal reference range
- H&E histology of major organs ([4]; heart, liver, lung, kidney, spleen): no signs of histopathological damage or tissue inflammation
